This is an account of results in ChEMBL document CHEMBL1201862, “PubChem BioAssay data set” (2004).

Test systems include RXF 393; SF-295; MDA-MB-435; SN12C; NCI/ADR-RES; MDA-N; ACHN; CAKI-1; SW-620; EKVX; KM12; Malme-3M; A549; UACC-62; OVCAR-5; HOP-92; DU-145; MOLT-4; A498; MDA-MB-231.
Holding throughout (assay): NCI tumour cell line growth inhibition, 48 h

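Grown in 96-well plates, cells were treated for 48 hours with each compound at five concentrations. Insufficient inhibition: endpoint recorded as highest concentration tested. GI50 marks 50% less growth.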 Active and inactive are the calls of the source. Cut-off read from the data, not from the text of the source: active = GI50 up to about 1.1 µM and inactive = higher.

As to `O=S(=O)(Nc1nccs1)c1ccc(Nc2nc(-c3cccs3)nc3ccc(I)cc23)cc1`, the GI50 is 36.5 µM (inactive) with RXF 393; 11.8 µM (inactive) in the experiment on SF-295; 11.8 µM (inactive) in the experiment with MDA-MB-435; 25.4 µM (inactive) in the experiment on SN12C; > 75.5 µM (inactive) in the experiment on NCI/ADR-RES; 32.5 µM (inactive) with MDA-N. Further, the GI50 is 29.6 µM (inactive) in the experiment on ACHN; 9.91 µM (inactive) with CAKI-1; 13 µM (inactive) with SW-620; 2.22 µM (inactive) with EKVX; 7.36 µM (inactive) in the experiment with KM12; 14.3 µM (inactive) in the experiment with Malme-3M. Besides, the GI50 is 26.7 µM (inactive) with A549; 19.2 µM (inactive) in the experiment on UACC-62; 40.2 µM (inactive) in the experiment with OVCAR-5; 9.35 µM (inactive) with HOP-92; 9.48 µM (inactive) in the experiment on DU-145; 14.2 µM (inactive) in the experiment on MOLT-4.

As for `CC1(C)CNCC(C)(OCc2ccccc2)C(=O)NC(C)(C)CNCC(C)(OCc2ccccc2)C(=O)N1` (stereo not drawn), the GI50 in the experiment with RXF 393 is 3.78 µM (inactive); with SF-295, > 10 µM (inactive); with MDA-MB-435, > 10 µM (inactive); in the experiment on SN12C, > 10 µM (inactive); in the experiment on A498 it was > 10 µM (inactive); with MDA-N it was > 10 µM (inactive). The GI50 in the experiment on ACHN, with SW-620, with EKVX, with KM12, with MDA-MB-231 and in the experiment with Malme-3M was > 10 µM (inactive) throughout. In addition, the GI50 was > 10 µM (inactive) in the experiment with A549; > 10 µM (inactive) in the experiment with UACC-62; > 10 µM (inactive) in the experiment with OVCAR-5; 0.385 µM (active) in the experiment with HOP-92; > 10 µM (inactive) with DU-145; > 10 µM (inactive) with MOLT-4.

Regarding `COc1cn2c(cc1=O)COc1ccc(-c3ccccc3)cc1-2`, the GI50 in the experiment with RXF 393 is > 82.6 µM (inactive); in the experiment on SF-295, > 78.2 µM (inactive); with MDA-MB-435 it was 39.7 µM (inactive); in the experiment with SN12C, 77.3 µM (inactive); in the experiment with NCI/ADR-RES, 49.9 µM (inactive); with MDA-N, 49.5 µM (inactive). Also, the GI50 in the experiment on ACHN is 48.4 µM (inactive); with CAKI-1, 43.4 µM (inactive); in the experiment on SW-620, > 100 µM (inactive); in the experiment on EKVX it was 36 µM (inactive); with KM12 it was 52.1 µM (inactive); in the experiment with Malme-3M it was 42.6 µM (inactive). In addition, the GI50 in the experiment with A549 is 39.6 µM (inactive); in the experiment with UACC-62, 44 µM (inactive); in the experiment with OVCAR-5, > 96.2 µM (inactive); in the experiment with HOP-92 it was 46.9 µM (inactive); with DU-145, 52.4 µM (inactive); in the experiment on MOLT-4, 44.5 µM (inactive).

As for `CNC(=S)N/N=C(\C(=N/NC(=S)NC)c1ccccn1)c1ccccn1`, the GI50 in the experiment with RXF 393 is 5.07 µM (inactive); in the experiment on SF-295, 3.15 µM (inactive); in the experiment on MDA-MB-435, 13.8 µM (inactive); in the experiment on SN12C it was 4.08 µM (inactive); in the experiment with A498, 4.58 µM (inactive); in the experiment with NCI/ADR-RES, < 0.02 µM (active). The GI50 was 44.3 µM (inactive) with MDA-N; 2.99 µM (inactive) with ACHN; 5.04 µM (inactive) in the experiment with CAKI-1; 1.24 µM (inactive) in the experiment on SW-620; 1.63 µM (inactive) with EKVX; 14.2 µM (inactive) with KM12. In addition, the GI50 in the experiment with Malme-3M was 4.73 µM (inactive); with A549, 5.74 µM (inactive); in the experiment with UACC-62, 4.59 µM (inactive); in the experiment on HOP-92 it was 15.2 µM (inactive); in the experiment on DU-145 it was 8.05 µM (inactive).

Turning to `CCC(=O)Nc1cccc(NC(=O)c2c(Cl)c(Cl)c(Cl)c(Cl)c2-c2nc3ccccc3[nH]2)c1`, the GI50 was 21.6 µM (inactive) in the experiment on RXF 393; 0.0417 µM (active) in the experiment with SF-295; 32.4 µM (inactive) with MDA-MB-435; > 100 µM (inactive) with SN12C; > 100 µM (inactive) in the experiment with A498; > 100 µM (inactive) in the experiment with NCI/ADR-RES. Also, the GI50 in the experiment on MDA-N is 22 µM (inactive); in the experiment on ACHN, 80.7 µM (inactive); in the experiment with CAKI-1, 82.4 µM (inactive); in the experiment on SW-620, > 100 µM (inactive); in the experiment with EKVX it was 52.8 µM (inactive); in the experiment with KM12 it was 0.0968 µM (active). Further, the GI50 with Malme-3M was > 100 µM (inactive); with A549, 0.0851 µM (active); in the experiment with UACC-62, 5.21 µM (inactive); in the experiment on OVCAR-5, > 100 µM (inactive); in the experiment with HOP-92 it was 5.36 µM (inactive); with DU-145, > 100 µM (inactive). The GI50 in the experiment with MOLT-4 is 22.8 µM (inactive).

On to `CCN(CC)C(=O)N1CN(c2ccccc2)C2(CCN(CCCSc3ccc(F)cc3)CC2)C1=O`, for which the GI50 in the experiment on RXF 393 is 16.2 µM (inactive); with SF-295 it was 12.1 µM (inactive); with MDA-MB-435, 12.8 µM (inactive); with SN12C it was 9.18 µM (inactive); in the experiment with NCI/ADR-RES it was 21.2 µM (inactive); with MDA-N, 6.15 µM (inactive). The GI50 with ACHN was 3.01 µM (inactive); in the experiment with CAKI-1 it was 87.7 µM (inactive); in the experiment on SW-620 it was 6.75 µM (inactive); in the experiment with EKVX it was 3.93 µM (inactive); in the experiment on KM12, 10.2 µM (inactive); in the experiment with Malme-3M, 15.9 µM (inactive). Besides, the GI50 in the experiment with A549 was 18.8 µM (inactive); with UACC-62, > 10 µM (inactive); in the experiment on OVCAR-5, 14.3 µM (inactive); with DU-145 it was 5.14 µM (inactive); with MOLT-4, 3.25 µM (inactive).

Turning to `COc1nc(Cl)c(Cl)c(Cl)n1.COc1nc(Cl)nc(Cl)c1Cl`, the GI50 was 10.7 µM (inactive) with RXF 393; 7.16 µM (inactive) with SF-295; 2.97 µM (inactive) in the experiment with MDA-MB-435; 23.3 µM (inactive) in the experiment on SN12C; 8.61 µM (inactive) in the experiment with A498; 7.87 µM (inactive) with NCI/ADR-RES. The GI50 is 7.59 µM (inactive) with ACHN; 0.0254 µM (active) with CAKI-1; 3.62 µM (inactive) in the experiment on SW-620; 0.381 µM (active) in the experiment on EKVX; 0.485 µM (active) with KM12; 17.2 µM (inactive) in the experiment with MDA-MB-231. In addition, the GI50 was 10.6 µM (inactive) with Malme-3M; 18.1 µM (inactive) in the experiment on A549; 8.93 µM (inactive) with UACC-62; 30.9 µM (inactive) with OVCAR-5; 2.31 µM (inactive) in the experiment with HOP-92; 2.35 µM (inactive) with DU-145. Besides, the GI50 in the experiment on MOLT-4 is 0.603 µM (active).

For `O=C1C(Cl)=C(NCCF)C(=O)c2ncccc21`, the GI50 in the experiment with RXF 393 was 1.84 µM (inactive); in the experiment on SF-295, 1.75 µM (inactive); in the experiment with MDA-MB-435, 0.212 µM (active); in the experiment on SN12C it was 1.91 µM (inactive); in the experiment with A498, 4.12 µM (inactive); in the experiment with MDA-N, 0.2 µM (active). In addition, the GI50 was 2.19 µM (inactive) in the experiment with ACHN; 1.36 µM (inactive) in the experiment with SW-620; 1.68 µM (inactive) with EKVX; 1.93 µM (inactive) in the experiment on KM12; 1.9 µM (inactive) in the experiment on MDA-MB-231; 1.57 µM (inactive) with Malme-3M. In addition, the GI50 with A549 is 1.89 µM (inactive); with UACC-62, 0.977 µM (active); with OVCAR-5, 1.88 µM (inactive); with DU-145 it was 1.6 µM (inactive); in the experiment with MOLT-4, 1.55 µM (inactive).
